Values quoted from earlier work in patent US20260199330A1, “MEDICAL METHOD AND USE” (ViiV Healthcare UK (No.3) Limited, priority 2024, published 2026).

What was measured:
[1] = supratherapeutic oral CAB 150 mg q12 h×3 doses, TQT study
[2] = oral 60 mg once daily for 2 years, LAI116482 (LATTE)

C[C@H]1CO[C@@H]2Cn3cc(C(=O)NCc4ccc(F)cc4F)c(=O)c(O)c3C(=O)N12 [Cabotegravir, (3S, 11aR)-N-((2,4-difluorophenyl)methyl)-6-hydroxy-3-methyl-5,7-dioxo-2,3,5, 11,11a-hexahydro(1,3)oxazolo(3,2-a)pyrido(1,2-d)pyrazine-8-carboxamide]
geometric mean Cmax, short-term safety threshold [1]: 22500 ng/mL
median (steady state) Cmax, long-term safety threshold [2]: 13100 ng/mL
